Laboratory results from US20210015793A1, “COMPOUNDS FOR TREATING CNS- AND NEURODEGENERATIVE DISEASES” (ETH ZURICH, priority 2018, published 2021).
Entries after “also recorded” stand apart in the source; their conditions may differ.

What was measured:
Assay type in all cases: in vivo, mouse
female B6 mice = assay: Aging-induced decrease in fertility in female B6 mice; conditions: 8 mg/kg/d in drinking water from 3 to 21 months of age, vs untreated controls
Experimental: (A,B) Treatment of B6 mice with Compound-1 (A) and Compound-1F (B) at a daily dose of 8 mg/kg/d in drinking water was started at an age of 3 months and continued until the end of the observation period at 21 months. The age of the male breeder(s) was <10 months. The number of offspring per month is given (±s.d.; n=5; p=0.0167 for Compound-1, and p=0.0032 for Compound-1F compared to untreated controls; unpaired, two-tailed Student's t-test).

Tg2576 AD mice [1] = assay: SDS-insoluble hippocampal Abeta1-40 and Abeta1-42 by sandwich ELISA in Tg2576 mice; conditions: 18 months-old Tg2576 mice, 6 months of treatment, 8 mg/kg/d in drinking water
Experimental: (§1) For quantitative analysis of SDS-insoluble hippocampal contents of Abeta1-40 and Abeta1-42, hippocampi were dissected out from brains isolated on ice from 18-month-old Tg2576 mice without and with treatment for 6 months with Compound-1 and Compound-4. Isolated hippocampi were pulverized under liquid nitrogen, and SDS-insoluble Abeta peptides were extracted by serial extraction in 14 microL/mg wet weight of Tris buffer (50 mM Tris, 200 nM NaCl, 2 mM EDTA, pH 7.2, supplemented with 1× protease inhibitors/1× phosphatase inhibitors), followed by extraction with Triton X-100-containing buffer (Tris extraction buffer with 0.1% Triton X-100), and followed by extraction with 2% SDS. The remaining pellet was extracted with formic acid (70% formic acid in Tris buffer supplemented with 1× protease inhibitors/1× phosphatase inhibitors). The resulting formic-acid extract was neutralized with 1 M Tris buffer, pH 11, and used for quantitative determination of Abeta1-40 and Abeta1-42 by sandwich ELISA relative to a standard curve according to the protocol of the manufacturer (KHB3481 and KHB3441, Thermo Fisher Scientific, Waltham, Mass., USA).
as §1, with “mM” for “nM”, “and with” for “relative to”

Tg2576 AD mice [2] = assay: Hippocampal hyperphosphorylated PHF tau by direct binding assay with [125I]-labeled AT8 antibody, Tg2576 mice subjected to CUMS; conditions: 15-month-old Tg2576 mice, 3 months of CUMS with treatment, vs untreated stressed controls
Source text: For a genetic model of familial AD (FAD), Tg2576 mice (Taconic Biosciences, Rensselaer, N.Y., USA) were used with neuron-specific overexpression of human APPSwe, i.e the Swedish mutation of APP695 isolated from a Swedish family with FAD featuring the double mutation K670N/M671L (Hsiao et al., Science 274, 99-103 (1996)). As a genetic model of tauopathy, the Tg-TauP301L mice (Model 2508, Taconic Biosciences, Rensselaer, N.Y., USA) with neuron-specific expression of the most common FTDP-17 (frontotemporal dementia and parkinsonism linked to chromosome 17) mutation (Lewis et al., Nature Genetics 25, 402-405 (2000)) were used. […]
Neuronal cell loss and hyperphosphorylated PHF Tau were determined in hippocampi of 15 months-old Tg2576 mice, which were treated without or with Compound-1 and Compound-4 for three months during the neurodegeneration-enhancing CUMS (chronic unpredictable mild stress) protocol. Neuronal cell loss was determined with crude homogenates of dissected hippocampi by direct binding assay with the neuron-specific [125]-labeled anti-NeuN antibody (MAB377, clone A60, EMD Millipore, Merck KGaA, Darmstadt, Germany). Similarly, the neuronal cell loss-causing PHF tau hyperphosphorylation was quantified with [125]-labeled AT8 antibody. […]

SMILES	female fertility (number of offspring per month) (female B6 mice)	hippocampal content of Abeta1-40 (Tg2576 AD mice [1])	hippocampal content of Abeta1-42 (Tg2576 AD mice [1])	hippocampal content of hyperphosphorylated PHF Tau (AT8 binding) (Tg2576 AD mice [2])
O=C(C1=C(O)C(c2ccccc2)N(c2ccc3c(c2)OCO3)C1=O)C1CC1 (centres unmarked) [Compound-1, 1-(1,3-benzodioxol-5-yl)-4-(cyclopropane-carbonyl)-3-hydroxy-2-phenyl-2H-pyrrol-5-one]	retarded aging-induced decrease in fertility	significantly decreased	significantly decreased	retarded; also recorded: significantly decreased hippocampal content of hyperphosphorylated PHF Tau
O=C(C1=C(O)C(c2ccc(F)cc2)N(c2ccc3c(c2)OCO3)C1=O)C1CC1 (centres unmarked) [Compound-1F, 1-(1,3-Benzodioxol-5-yl)-4-(cyclopropanecarbonyl)-2-(4-fluorophenyl)-3-hydroxy-2H-pyrrol-5-one]	retarded aging-induced decrease in fertility	significantly decreased	significantly decreased	retarded
